System: HBV
Assay: Inhibition of HBV infection of human liver buds by drugs (intracellular HBV 3.5k RNA and HBV DNA in culture supernatant)
Type: cell-based
Details: HBV 5,000 copies per cell, cultured for 10 days, FIG. 8, vs Con
Procedure: The endodermal cells obtained, vascular endothelial cells (human umbilical vein-derived endothelial cells) (Lonza, Basel, Switzerland) and undifferentiated mesenchymal cells (human bone marrow-derived mesenchymal stem cells) (Lonza, Basel, Switzerland) were mixed at 10:7:1 (400 cells: 280 cells: 40 cells per organ bud) to prepare human liver buds (120-150 μm in size).
The human liver buds prepared in (2) above were cultured in DMSO-containing medium for 7 days and further cultured in HGF-, OSM- and DEX-containing medium for 7 days, followed by infection with HBV. HBV was recovered from culture supernatant of HepG2.2.15 cells which had been prepared by transferring the intact HBV genome (genotype D) into human hepatoma cell line HepG2 by lipofection. The liver buds were infected with approx. 500 copies of HBV per endodermal cell in 4% PEG8000-containing medium and cultured for about 30 days.
(5) Culture supernatants of human liver buds and human iPS-cell derived hepatocytes were recovered at days 10, 20 and 30 post HBV infection, followed by measurement of HBV DNA. (6) Human liver buds and human iPS-cell derived hepatocytes were recovered at days 10, 20 and 30 post HBV infection, followed by measurement of HBV 3.5k RNA. (7) The inside of human liver buds was immunostained with HBc antibody at days 10, 20 and 30 post HBV infection. (8) Human primary hepatocytes (PXB cells; Phoenix Bio) were infected with the culture supernatant of human liver buds at day 20 post HBV infection. (9) Human liver buds and human iPS-cell derived hepatocytes were recovered at day 20 post HBV infection, followed by measurement of covalently closed circular DNA (cccDNA). (10) Human liver buds at day 10 post HBV infection and non-HBV-infected human liver buds in the corresponding period were fixed with paraformaldehyde and glutaraldehyde, and electron micrographs were taken. (11) Human liver buds were infected with HBV (5,000 copies per cell). […] Intracellular HBV 3.5k RNA and HBV DNA in culture supernatant were measured.

## interferon γ [IFN-γ]
Interferon γ 1000 U/ml
  infection of human liver bud with HBV: inhibited

## C=C1[C@H](CO)[C@@H](O)C[C@@H]1n1cnc2c(=O)[nH]c(N)nc21 [ETV, entecavir, reference compound]
entecavir
  infection of human liver bud with HBV: inhibited

## interferon α [IFN-α]
Interferon α 1000 U/ml
  infection of human liver bud with HBV: inhibited

From patent publication US20190285619A1, “VIRUS INFECTION MODEL, PREPARATION METHOD THEREFOR, AND UTILIZATION THEREOF” (priority 2015, published 2019)
